Target: T1, Menin-MLL (Homo sapiens, UniProt O00255)
T1 construct: His-Menin (M1-L615 end); purchased BIORTUS BP9210
T1 sequence (O00255 1-615 isoform O00255-1): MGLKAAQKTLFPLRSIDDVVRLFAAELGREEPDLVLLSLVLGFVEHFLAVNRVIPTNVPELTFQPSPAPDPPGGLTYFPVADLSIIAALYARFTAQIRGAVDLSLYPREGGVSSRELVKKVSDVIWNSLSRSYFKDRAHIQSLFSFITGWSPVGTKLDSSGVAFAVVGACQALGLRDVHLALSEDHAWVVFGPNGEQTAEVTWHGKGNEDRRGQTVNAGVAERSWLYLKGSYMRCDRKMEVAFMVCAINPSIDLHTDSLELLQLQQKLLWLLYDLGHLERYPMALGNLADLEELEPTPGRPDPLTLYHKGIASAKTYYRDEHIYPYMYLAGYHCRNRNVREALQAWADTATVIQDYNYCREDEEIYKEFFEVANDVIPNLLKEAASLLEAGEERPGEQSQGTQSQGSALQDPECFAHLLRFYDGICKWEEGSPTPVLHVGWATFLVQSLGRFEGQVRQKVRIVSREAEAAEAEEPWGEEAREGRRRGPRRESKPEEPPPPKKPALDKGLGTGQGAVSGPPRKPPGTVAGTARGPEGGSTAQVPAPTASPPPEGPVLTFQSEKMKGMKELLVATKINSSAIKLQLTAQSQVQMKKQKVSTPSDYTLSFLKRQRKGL
Assay: Inhibitory activity against Menin-MLL binding (fluorescence polarization)
Conditions: Menin-MLL IC50, fluorescence polarization; 150 nM His-Menin, 15 nM FITC-MLL; 25°C for 60 min
Procedure: • His-Menin (M1-L615 end), purchased from BIORTUS, Catalog Number: BP9210; and • FITC-MLL4-43, purchased from GenScript, Catalog Number: C491HFF190-3/PE1324.
In a 10 µL reaction solution (20 mM HEPES, pH 7.5, 50 mM NaCl, 1 mM DTT, 0.01% BSA) containing any compound from the examples, 150 nM His-Menin was added to a 384-well plate (Corning, Model: 4514). Each concentration was set up in duplicate wells. After centrifugation at 1000 RPM for 1 min, the plate was incubated at 25°C for 15 min. Then, 15 nM […] (20 mM HEPES, pH 7.5, 50 mM NaCl, 1 mM DTT, 0.01% BSA) was added to a 384-well plate. After centrifugation at 1000 RPM for 1 min, the reaction proceeded at 25°C for 60 min. Changes in fluorescence polarization were measured using a plate reader (PerkinElmer, Envision 2104). Based on the measured signals, the binding inhibition rate of the compound at each concentration was calculated, and the IC50 (half-maximal inhibitory concentration) of the compound was determined using statistical analysis software GraphPad Prism (GraphPad Software, Inc.) by means of a nonlinear fitting formula: 4-Parameter Logistic Model or Sigmoidal Dose-Response Model: Y = Bottom + (Top−Bottom)/(1 + 10^((LogIC50−X) × Hill Slope)), [formula] in which X indicates the logarithm of compound concentration, Y indicates a fluorescence polarization mP value, and Top and Bottom indicate the maximum and minimum readouts of fluorescence polarization mP values. Table 1: Inhibitory Activity of Compounds Against Menin-MLL Binding

**Q.** Which IC50 does the source give for `CCN(C(=O)c1cc(F)ccc1-c1cc(N2CCN(C(=O)C3NC4CCC3CC4)CC2)cn2c(C)nc(Cl)c12)C(C)C` [Example 93, 2-(1-chloro-3-methyl-6-{4-[(1R,3S,4S)-2-azabicyclo[2.2.2]octan-3-carbonyl]piperazin-1-yl}imidazo[1,5-a]pyridin-8-yl)-N-ethyl-5-fluoro-N-(isopropyl)benzamide] here?
**A.** Its IC50 is 21 nM.

Same assay, conditions: fluorescence polarization; 150 nM His-Menin, 15 nM FITC-MLL; 25°C for 60 min; read-out: Menin-MLL IC50

**Q.** With `CCC(=O)N1CCC([C@@H](C)N2CC(c3cc(-c4ccc(F)cc4C(=O)N4CCOC[C@H]4C)c4cnc(C)n4c3)C2)CC1` [Example 319-2, 1-{4-[(1R)-1-[3-(8-{4-fluoro-2-[(3R)-3-methylmorpholin-4-carbonyl]phenyl}-3-methylimidazo[1,5-a]pyridin-6-yl)azacyclobutan-1-yl]ethyl]piperidin-1-yl}propan-1-one] as the molecule, how does the IC50 read?
**A.** Its IC50 is 328 nM.

**Q.** For `CCN(C(=O)c1cc(F)ccc1-c1cc(C2CN(C(COC)C(C)C)C2)cn2c(C)ncc12)C(C)C` (stereo not shown) [Example 414, N-ethyl-5-fluoro-2-{6-[1-(1-methoxy-3-methylbutan-2-yl)azacyclobutan-3-yl]-3-methylimidazo[1,5-a]pyridin-8-yl}-N-(isopropyl)benzamide], which IC50 is on record?
**A.** The IC50 was 11.8 nM.

**Q.** How did the IC50 turn out when `CCN(C(=O)c1cc(F)ccc1-c1cc(N2CCN(CC3CCCCC3)CC2)cn2c(C)ncc12)C(C)C` [Compound 58, 2-{6-[4-(cyclohexylmethyl)piperazin-1-yl]-3-methylimidazo[1,5-a]pyridin-8-yl}-N-ethyl-5-fluoro-N-(isopropyl)benzamide] was run?
**A.** The IC50 was 124 nM.

**Q.** How did the IC50 turn out when `CCN(C(=O)c1cc(F)ccc1-c1cc(C2CN([C@H](CCCN3CCN(C4(C(=O)N(C)C)COC4)CC3)C(C)C)C2)cn2c(C)ncc12)C(C)C` [Example 476, 3-{4-[(4R)-4-[3-(8-{2-[ethyl(isopropyl)aminoformyl]-4-fluorophenyl}-3-methylimidazo[1,5-a]pyridin-6-yl)azacyclobutan-1-yl]-5-methylhexyl]piperazin-1-yl}-N,N-dimethyloxacyclobutan-3-formamide] was run?
**A.** The IC50 was 1.9 nM.

**Q.** With `CCN(C(=O)c1cc(F)ccc1-c1cc(C2CN(C(CCCN3C[C@H]4C[C@@H]3CO4)C(C)C)C2)cc2c(C)ncn12)C(C)C` (stereo partly drawn) [Example 465, N-ethyl-5-fluoro-2-[1-methyl-7-(1-{2-methyl-6-[(1R,4R)-2-oxa-5-azabicyclo[2.2.1]heptan-5-yl]hexan-3-yl}azacyclobutan-3-yl)imidazo[1,5-a]pyridin-5-yl]-N-(isopropyl)benzamide] as the molecule, how does the IC50 read?
**A.** The IC50 was 3.1 nM.

**Q.** `CCNC(=O)N1CCC([C@@H](C)N2CC(c3cc(-c4ccc(F)cc4C(=O)N(CC)C(C)C)c4c(F)nc(C)n4c3)C2)CC1` [Example 282-1, N-ethyl-4-[(1R)-1-[3-(8-{2-[ethyl(isopropyl)aminoformyl]-4-fluorophenyl}-1-fluoro-3-methylimidazo[1,5-a]pyridin-6-yl)azacyclobutan-1-yl]ethyl]piperidin-1-formamide] was tested. Which IC50 did it give?
**A.** The IC50 was 9 nM.

**Q.** `CCN(C(=O)c1cc(F)ccc1-c1cc(C2CN([C@@H](CCCN3CCN(C(=O)OC(C)(C)C)CC3)C(C)C)C2)cn2c(C)ncc12)C(C)C` [Example 454-2, 4-[(4S)-4-[3-(8-{2-[ethyl(isopropyl)aminoformyl]-4-fluorophenyl}-3-methylimidazo[1,5-a]pyridin-6-yl)azacyclobutan-1-yl]-5-methylhexyl]piperazin-1-tert-butyl carboxylate] was tested. Which IC50 did it give?
**A.** The IC50 was 80 nM.

**Q.** With `COCC(C1CCOCC1)N1CC(c2cc(-c3ccc(F)cc3C(=O)N3CCOC[C@H]3C)c3cnc(C)n3c2)C1` (stereo partly shown) [Example 256] as the molecule, how does the IC50 read?
**A.** The IC50 was 189 nM.

**Q.** How did the IC50 turn out when `CCN(C(=O)c1cc(F)ccc1-c1cc(C2CN(C(C[C@@H]3CN(C(=O)OC(C)(C)C)CCO3)C(C)C)C2)cn2c(C)ncc12)C(C)C` (stereo partly drawn) [Example 461, (2R)-2-{2-[3-(8-{2-[ethyl(isopropyl)aminoformyl]-4-fluorophenyl}-3-methylimidazo[1,5-a]pyridin-6-yl)azacyclobutan-1-yl]-3-methylbutyl}morpholin-4-tert-butyl carboxylate] was run?
**A.** Its IC50 is 43 nM.

— patent EP4782453A1 (Beyang Therapeutics Co., Ltd., priority 2023, dated 2025)
